Consider two compounds from patent US20260206755A1, “COMPOUNDS AND COMPOSITIONS HAVING KNOCK-DOWN OR BLOOD FEED INHIBITION ACTIVITY AGAINST INSECT PESTS” (priority 2017, published 2026).

Like-named read-outs stand apart in the source and are kept apart here.

For the data set, the system named is Anopheles stephensi. Nature of the data set: Anopheles stephensi treated well plate contact test: knockdown and mortality. It counts as in vivo. Particulars: for mortality % 24, with TFNA-AM / mortality % 24, without TFNA-AM: after 24 hours; for mortality % 48, with TFNA-AM / mortality % 48, without TFNA-AM: after 48 hours. An outline of the steps:
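Well surfaces coated with ethanol solution of compound at a defined concentration, alone or with 2 ppm TFNA-AM, then dried. Five non-blood-fed 2–5-day-old adult females per well, fed 10% sucrose; knockdown scored at 1 hour, mortality at 24 and 48 hours, replicate means reported.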

Setting [1] is: Anopheles stephensi, 24 h, read-out: mortality % 24, without TFNA-AM.
[2] abbreviates: Anopheles stephensi, 48 h, read-out: mortality % 48, without TFNA-AM.
Setting [3] is: test compound 0.02 ppm plus 2 ppm TFNA-AM.
Setting [4] is: test compound 0.02 ppm plus 2 ppm TFNA-AM, knockdown after 1 hour.
Setting [5] is: test compound 0.2 ppm plus 2 ppm TFNA-AM.
[6] abbreviates: test compound 0.2 ppm plus 2 ppm TFNA-AM, knockdown after 1 hour.
Where [7] appears, read: test compound 2 ppm plus 2 ppm TFNA-AM.
The mark [8] stands for this setting: test compound 2 ppm plus 2 ppm TFNA-AM, knockdown after 1 hour.
[9] abbreviates: test compound 20 ppm plus 2 ppm TFNA-AM.
The mark [10] stands for this setting: test compound 20 ppm plus 2 ppm TFNA-AM, knockdown after 1 hour.
[11] abbreviates: test compound 0.02 ppm, without TFNA-AM.
The mark [12] stands for this setting: test compound 0.2 ppm, without TFNA-AM.
Setting [13] is: test compound 2 ppm, without TFNA-AM.
The mark [14] stands for this setting: test compound 20 ppm, without TFNA-AM.

`CNC(=O)Oc1cccc2c1OC(C)(C)O2` [Bendiocarb]: the mortality at 0.02 ppm under setting [1] amounted to 0% and the mortality at 0.02 ppm under setting [2] came out at 0%. The mortality at 0.2 ppm reads like this: under setting [1], 60%; under setting [2], 60%. In addition, the mortality at 2 ppm turned out to be 100% under setting [1] and 100% under setting [2]. Also, the mortality at 20 ppm under setting [1] was determined as 100% and the mortality at 20 ppm under setting [2] was 100%. In addition, for the setting “Anopheles stephensi, test compound 0.02 ppm, without TFNA-AM, knockdown after 1 hour, read-out: Knock Down, without TFNA-AM”, the pest or weed control at 0.02 ppm was 0%. Moreover, for the setting “Anopheles stephensi, test compound 0.2 ppm, without TFNA-AM, knockdown after 1 hour, read-out: Knock Down, without TFNA-AM”, the pest or weed control at 0.2 ppm was 20%. Where the note is “Anopheles stephensi, test compound 2 ppm, without TFNA-AM, knockdown after 1 hour, read-out: Knock Down, without TFNA-AM”, the pest or weed control at 2 ppm is 100%. In addition, the pest or weed control at 20 ppm (Anopheles stephensi, test compound 20 ppm, without TFNA-AM, knockdown after 1 hour, read-out: Knock Down, without TFNA-AM) is 100%. For the same compound, the “mortality % 24, with TFNA-AM” value came out at 20% under setting [3], 100% under setting [5], 100% under setting [7] and 100% under setting [9]. Besides, the “Knock Down, with TFNA-AM” value came out at 100% under setting [4], 100% under setting [6], 100% under setting [8] and 100% under setting [10]. Besides, the “mortality % 48, with TFNA-AM” value under setting [5] is reported as 100%; the “mortality % 48, with TFNA-AM” value under setting [7] was found to be 100%; the “mortality % 48, with TFNA-AM” value under setting [9] is recorded as 100%.
Consider `CC(C)=C[C@@H]1[C@@H](C(=O)O[C@H](C#N)c2cccc(Oc3ccccc3)c2)C1(C)C` (relative stereo) [d-d, trans cyphenothrin], for which the “mortality % 24, with TFNA-AM” value came to 60% under setting [3], 60% under setting [5], 100% under setting [7] and 100% under setting [9]. The “mortality % 48, with TFNA-AM” value was 20% under setting [3], 100% under setting [5], 100% under setting [7] and 100% under setting [9]. Also, the “Knock Down, with TFNA-AM” value reads like this: under setting [4], 100%; under setting [6], 100%; under setting [8], 100%; under setting [10], 100%. Further, the “mortality % 24, without TFNA-AM” value is, setting by setting: under setting [11], 0%; under setting [12], 0%; under setting [13], 0%; under setting [14], 40%. The “mortality % 48, without TFNA-AM” value worked out at 0% under setting [11], 0% under setting [12], 0% under setting [13] and 60% under setting [14]. In addition, the “Knock Down, without TFNA-AM” value is, setting by setting: (test compound 0.02 ppm, without TFNA-AM, knockdown after 1 hour) 0%; (test compound 0.2 ppm, without TFNA-AM, knockdown after 1 hour) 0%; (test compound 2 ppm, without TFNA-AM, knockdown after 1 hour) 0%; (test compound 20 ppm, without TFNA-AM, knockdown after 1 hour) 0%.

What is called mortality is the share of the test organisms that died.
